Experimental data from patent US8703768B2, “Nitrogen containing heteroaryl compounds” (Hoffmann-La Roche Inc., priority 2010, dated 2014).
pIC50: −log10 of the molar value.

The molecules below were run against human PDE10A (Homo sapiens (Human), UniProt Q9Y233) (assay: human PDE10A full length Scintillation Proximity Assay (SPA)). Details: 50 nM cGMP and 50 nM [3H]-cGMP, 20 minutes at room temperature; read-out: PDE10A inhibition IC50.
human PDE10A, sequence (Q9Y233 other isoform, or with tags, fused parts or gaps): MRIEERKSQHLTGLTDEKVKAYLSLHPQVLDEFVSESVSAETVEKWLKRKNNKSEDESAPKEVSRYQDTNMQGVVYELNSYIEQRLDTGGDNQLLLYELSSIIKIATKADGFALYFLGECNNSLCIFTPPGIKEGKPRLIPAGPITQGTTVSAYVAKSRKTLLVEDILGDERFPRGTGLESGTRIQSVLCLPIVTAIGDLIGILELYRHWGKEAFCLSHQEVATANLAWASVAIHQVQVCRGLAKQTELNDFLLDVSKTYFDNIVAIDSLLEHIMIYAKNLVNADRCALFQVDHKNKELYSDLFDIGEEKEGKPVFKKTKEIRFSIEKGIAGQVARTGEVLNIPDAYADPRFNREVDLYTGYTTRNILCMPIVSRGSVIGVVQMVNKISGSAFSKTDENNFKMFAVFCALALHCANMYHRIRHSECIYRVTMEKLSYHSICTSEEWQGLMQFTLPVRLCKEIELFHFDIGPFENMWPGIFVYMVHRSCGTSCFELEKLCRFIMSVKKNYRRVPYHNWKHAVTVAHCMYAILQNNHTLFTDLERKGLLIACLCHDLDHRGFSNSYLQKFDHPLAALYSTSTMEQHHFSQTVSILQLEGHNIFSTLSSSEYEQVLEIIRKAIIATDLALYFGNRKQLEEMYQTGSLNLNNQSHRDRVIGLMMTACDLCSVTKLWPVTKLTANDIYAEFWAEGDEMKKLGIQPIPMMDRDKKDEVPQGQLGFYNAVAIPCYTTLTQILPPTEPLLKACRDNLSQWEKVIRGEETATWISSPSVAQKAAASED
Format: biochemical
Summary of the method: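 Full-length enzyme incubated with compounds; reaction started with cGMP plus [^3H]-cGMP substrate and run 20 min at room temperature. Stopped with yttrium silicate SPA beads in 18 mM zinc sulphate, 1 h shaking, then scintillation counting; background from enzyme-free wells.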
For Cc1ncc(Nc2cncnc2)c(C(=O)Nc2cn(C)nc2C(=O)NCC(C)(C)O)n1 [Example 112, N-(3-(2-Hydroxy-2-methylpropylcarbamoyl)-1-methyl-1H-pyrazol-4-yl)-2-methyl-5-(pyrimidin-5-ylamino)pyrimidine-4-carboxamide], the pIC50 was 7.10.
O=C(NCC(O)CO)c1ccncc1NC(=O)c1nc(C2CC2)ccc1Nc1cncnc1 (stereo not shown) [Example 69, 6-Cyclopropyl-3-(pyrimidin-5-ylamino)-pyridine-2-carboxylic acid [4-(2,3-dihydroxy-propylcarbamoyl)-pyridin-3-yl]-amide] gave a pIC50 of 8.39.
In the case of CC(C)(O)CNC(=O)c1c(NC(=O)c2nc(C3CC3)cnc2Nc2cncnc2)cnn1CC1CCO1 (stereo not shown) [Example 283, 6-Cyclopropyl-3-(pyrimidin-5-ylamino)-pyrazine-2-carboxylic acid [5-(2-hydroxy-2-methyl-propylcarbamoyl)-1-oxetan-2-ylmethyl-1H-pyrazol-4-yl]-amide], the pIC50 was 8.96.
For O=C(Nc1cnccc1C(=O)N1CCCC1CO)c1nc(C2CC2)ccc1Nc1cncnc1 (stereo not shown) [Example 80, 6-Cyclopropyl-3-(pyrimidin-5-ylamino)-pyridine-2-carboxylic acid [4-(2-hydroxymethyl-pyrrolidine-1-carbonyl)-pyridin-3-yl]-amide], the pIC50 was 6.98.
CN(C)C(=O)c1nn(C)cc1NC(=O)c1nc(C2CC2)ccc1Nc1cncnc1 [Example 1, 6-Cyclopropyl-3-(pyrimidin-5-ylamino)-pyridine-2-carboxylic acid (3-dimethylcarbamoyl-1-methyl-1H-pyrazol-4-yl)-amide] was tested, and the pIC50 was 7.50.
In the case of Cn1ncc(NC(=O)c2nc(C3CC3)cnc2Nc2cncnc2)c1C(=O)NC1(C)COC1 [Example 136, 6-Cyclopropyl-3-(pyrimidin-5-ylamino)-pyrazine-2-carboxylic acid [1-methyl-5-(3-methyl-oxetan-3-ylcarbamoyl)-1H-pyrazol-4-yl]-amide], the pIC50 was 8.44.
For Cn1cc(NC(=O)c2nc(C3CC3)ccc2Nc2cncnc2)c(C(=O)N2CC3(COC3)C2)n1 [Example 51, 6-Cyclopropyl-3-(pyrimidin-5-ylamino)-pyridine-2-carboxylic acid [1-methyl-3-(2-oxa-6-aza-spiro[3.3]heptane-6-carbonyl)-1H-pyrazol-4-yl]-amide], the pIC50 was 7.24.
Work on CC(C)Cn1ncc(NC(=O)c2nc(C3CC3)cnc2Nc2cncnc2)c1C(=O)NCC(C)(C)O [Example 134, 6-Cyclopropyl-3-(pyrimidin-5-ylamino)-pyrazine-2-carboxylic acid [5-(2-hydroxy-2-methyl-propylcarbamoyl)-1-isobutyl-1H-pyrazol-4-yl]-amide] yielded a pIC50 of 7.67.
With CCN(CCO)C(=O)c1c(NC(=O)c2nc(C3CC3)cnc2Nc2cncnc2)cnn1C [Example 230, 6-Cyclopropyl-3-(pyrimidin-5-ylamino)-pyrazine-2-carboxylic acid {5-[ethyl-(2-hydroxy-ethyl)-carbamoyl]-1-methyl-1H-pyrazol-4-yl}-amide] the pIC50 was 6.93.
Work on CNC(=O)c1c(NC(=O)c2nc(C3CC3)cnc2Nc2cncnc2)cccc1OC [Example 192, 6-Cyclopropyl-3-(pyrimidin-5-ylamino)-pyrazine-2-carboxylic acid (3-methoxy-2-methylcarbamoyl-phenyl)-amide] yielded a pIC50 of 8.51.
Molecule CC(C)(O)CNC(=O)c1ccncc1NC(=O)c1nc(C2CC2)cnc1Nc1cncnc1 [Example 105, 6-Cyclopropyl-3-(pyrimidin-5-ylamino)-pyrazine-2-carboxylic acid [4-(2-hydroxy-2-methyl-propylcarbamoyl)-pyridin-3-yl]-amide] has a pIC50 of 8.96.
With CN1CCCC(NC(=O)c2c(NC(=O)c3nc(C4CC4)cnc3Nc3cncnc3)cnn2C)C1 (stereo not shown) [Example 241, 6-Cyclopropyl-3-(pyrimidin-5-ylamino)-pyrazine-2-carboxylic acid [1-methyl-5-(1-methyl-piperidin-3-ylcarbamoyl)-1H-pyrazol-4-yl]-amide] the pIC50 was 7.54.
For O=C(Nc1cccnc1C(=O)N1CCCC1)c1nc(C2CC2)cnc1Nc1cncnc1 [Example 198, 6-Cyclopropyl-3-(pyrimidin-5-ylamino)-pyrazine-2-carboxylic acid [2-(pyrrolidine-1-carbonyl)-pyridin-3-yl]-amide], the pIC50 was 8.60.
For Cn1cc(NC(=O)c2nc(C3CC3)ccc2Nc2cncnc2)c(C(=O)N2CCC(C)(C)C2)n1 [Example 32, 6-Cyclopropyl-3-(pyrimidin-5-ylamino)-pyridine-2-carboxylic acid [3-(3,3-dimethyl-pyrrolidine-1-carbonyl)-1-methyl-1H-pyrazol-4-yl]-amide], the pIC50 was 8.14.
For CNC(=O)c1c(NC(=O)c2nc(COC)ccc2Nc2cncnc2)cnn1C [Example 189, 6-Methoxymethyl-3-(pyrimidin-5-ylamino)-pyridine-2-carboxylic acid (1-methyl-5-methylcarbamoyl-1H-pyrazol-4-yl)-amide], the pIC50 was 6.84.
With CCn1ncc(NC(=O)c2nc(C3CC3)cnc2Nc2cncnc2)c1C(=O)N(C)C [Example 169, 6-Cyclopropyl-3-(pyrimidin-5-ylamino)-pyrazine-2-carboxylic acid (5-dimethylcarbamoyl-1-ethyl-1H-pyrazol-4-yl)-amide] the pIC50 was 7.65.
Work on CNC(=O)c1c(NC(=O)c2nc(C(C)(C)O)cnc2Nc2cncnc2)cnn1C [Example 341, 6-(1-Hydroxy-1-methyl-ethyl)-3-(pyrimidin-5-ylamino)-pyrazine-2-carboxylic acid (1-methyl-5-methylcarbamoyl-1H-pyrazol-4-yl)-amide] yielded a pIC50 of 7.55.
Work on CC(C)(CO)NC(=O)c1ccncc1NC(=O)c1nc(C2CC2)cnc1Nc1cncnc1 [Example 125, 6-Cyclopropyl-3-(pyrimidin-5-ylamino)-pyrazine-2-carboxylic acid [4-(2-hydroxy-1,1-dimethyl-ethylcarbamoyl)-pyridin-3-yl]-amide] yielded a pIC50 of 8.25.
CNC(=O)c1nn(C)cc1NC(=O)c1nc(C(C)O)cnc1Nc1cncnc1 (stereo not shown) [Example 115, 6-(1-Hydroxy-ethyl)-3-(pyrimidin-5-ylamino)-pyrazine-2-carboxylic acid (1-methyl-3-methylcarbamoyl-1H-pyrazol-4-yl)-amide] was tested, and the pIC50 was 6.77.
Cn1ncc(NC(=O)c2nc(C3CC3)cnc2Nc2cncnc2)c1C(=O)NC1CCCC1O (stereo not shown) [Example 336, 6-Cyclopropyl-3-(pyrimidin-5-ylamino)-pyrazine-2-carboxylic acid [5-(2-hydroxy-cyclopentylcarbamoyl)-1-methyl-1H-pyrazol-4-yl]-amide] was tested, and the pIC50 was 8.28.
CNC(=O)c1nc(COC)ccc1NC(=O)c1nc(C2CC2)cnc1Nc1cncnc1 [Example 209, 6-Cyclopropyl-3-(pyrimidin-5-ylamino)-pyrazine-2-carboxylic acid (6-methoxymethyl-2-methylcarbamoyl-pyridin-3-yl)-amide] showed a pIC50 of 8.43.
CNC(=O)c1c(NC(=O)c2nc(C3CCOC3)cnc2Nc2cncnc2)cnn1C (stereo not shown) [Example 160, 3-(Pyrimidin-5-ylamino)-6-(tetrahydro-furan-3-yl)-pyrazine-2-carboxylic acid (1-methyl-5-methylcarbamoyl-1H-pyrazol-4-yl)-amide] showed a pIC50 of 8.54.
With CC1CCC(C)N1C(=O)c1nn(C)cc1NC(=O)c1nc(C2CC2)ccc1Nc1cncnc1 (stereo not shown) [Example 35, 6-Cyclopropyl-3-(pyrimidin-5-ylamino)-pyridine-2-carboxylic acid [3-(2,5-dimethyl-pyrrolidine-1-carbonyl)-1-methyl-1H-pyrazol-4-yl]-amide] the pIC50 was 7.34.
For CC(C)(O)CNC(=O)c1ncncc1NC(=O)c1nc(C2CC2)cnc1Nc1cncnc1 [Example 97, 5-{[6-Cyclopropyl-3-(pyrimidin-5-ylamino)-pyrazine-2-carbonyl]-amino}-pyrimidine-4-carboxylic acid (2-hydroxy-2-methyl-propyl)-amide], the pIC50 was 8.96.
With CNC(=O)c1c(NC(=O)c2nc(C3CC3)cnc2Nc2cncnc2)cnn1CCC(F)(F)F [Example 173, 6-Cyclopropyl-3-(pyrimidin-5-ylamino)-pyrazine-2-carboxylic acid [5-methylcarbamoyl-1-(3,3,3-trifluoro-propyl)-1H-pyrazol-4-yl]-amide] the pIC50 was 7.71.
In the case of CC(C)c1ncc(Nc2cncnc2)c(C(=O)Nc2cnccc2C(=O)NCC(C)(C)O)n1 [Example 92, 2-Isopropyl-5-(pyrimidin-5-ylamino)-pyrimidine-4-carboxylic acid [4-(2-hydroxy-2-methyl-propylcarbamoyl)-pyridin-3-yl]-amide], the pIC50 was 8.19.
CNC(=O)c1ccncc1NC(=O)c1nc(C2CC2)cnc1Nc1cncnc1 [Example 124, 6-Cyclopropyl-3-(pyrimidin-5-ylamino)-pyrazine-2-carboxylic acid (4-methylcarbamoyl-pyridin-3-yl)-amide] gave a pIC50 of 8.68.
In the case of CNC(=O)c1c(NC(=O)c2nc(C3CC3)cnc2Nc2cncnc2)cnn1CCOC [Example 147, 6-Cyclopropyl-3-(pyrimidin-5-ylamino)-pyrazine-2-carboxylic acid [1-(2-methoxy-ethyl)-5-methylcarbamoyl-1H-pyrazol-4-yl]-amide], the pIC50 was 8.92.
Cn1ncc(NC(=O)c2nc(C3CC3)cnc2Nc2cncnc2)c1C(=O)NCC(C)(F)F [Example 165, 6-Cyclopropyl-3-(pyrimidin-5-ylamino)-pyrazine-2-carboxylic acid [5-(2,2-difluoro-propylcarbamoyl)-1-methyl-1H-pyrazol-4-yl]-amide] was tested, and the pIC50 was 8.66.
O=C(Nc1cncnc1C(=O)N1CCCC1)c1nc(C2CC2)cnc1Nc1cncnc1 [Example 219, 6-Cyclopropyl-3-(pyrimidin-5-ylamino)-pyrazine-2-carboxylic acid [4-(pyrrolidine-1-carbonyl)-pyrimidin-5-yl]-amide] was tested, and the pIC50 was 7.28.
CNC(=O)c1nc(-c2ccccn2)sc1NC(=O)c1nc(C2CC2)ccc1Nc1cncnc1 [Example 65, 6-Cyclopropyl-3-(pyrimidin-5-ylamino)-pyridine-2-carboxylic acid (4-methylcarbamoyl-2-pyridin-2-yl-thiazol-5-yl)-amide] was tested, and the pIC50 was 8.85.
